What was measured:
NRAS WT = NRAS WT (Homo sapiens, UniProt P01111+P62937); assay: Disruption of BRAF RBD interaction with Ras (FRET / MOA assay, with Cyclophilin A); assay type: biochemical; conditions: NRAS WT; read-out: NRAS WT FRET data IC50
Outline: (§1)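 TR-FRET in 25 mM HEPES pH 7.3, 100 mM NaCl, 5 mM MgCl2, 0.1% BSA: 25 μM Cyclophilin A, 12.5 nM His6-Ras-GMPPNP, 50 nM GST-BRAF RBD with compound (10-point 3-fold series from 30 μM), 3 h at 25° C. Anti-His Eu/anti-GST APC added, 1.5 h more; IC50 from decreased FRET ratio versus DMSO.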

NRAS Q61K = NRAS Q61K (Homo sapiens, UniProt P01111+P62937, Q61K); assay: as above; assay type: biochemical; conditions: NRAS Q61K; read-out: NRAS Q61K FRET data IC50
Outline: as §1

KRAS Q61H = KRAS Q61H (Homo sapiens, UniProt P01116+P62937, Q61H); assay: as above; assay type: biochemical; conditions: KRAS Q61H; read-out: KRAS Q61H FRET data IC50
Outline: as §1

NRAS Q61R = NRAS Q61R (Homo sapiens, UniProt P01111+P62937, Q61R); assay: as above; assay type: biochemical; conditions: NRAS Q61R; read-out: NRAS Q61R FRET data IC50
Outline: as §1

Capan-1 (K-Ras G12V) = assay: CellTiter-Glo cell viability assay, 5-day treatment; assay type: cell-based; conditions: Homo sapiens, CAPAN-1, 120 h, 5-day treatment; read-out: Capan-1 Cell Viability assay data (K-Ras G12V, IC50)
Outline: (§2)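 Viability is read as luminescence on day 5 after direct compound addition to plated cells, following about 30 minutes' room-temperature equilibration. Each signal is scaled to mean DMSO as 100%.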

NCI-H358 (K-Ras G12C) = assay: as above; assay type: cell-based; conditions: Homo sapiens, NCI-H358, 120 h, 5-day treatment; read-out: H358 Cell Viability assay data (K-Ras G12C, IC50)
Outline: as §2

KRAS WT = KRAS WT (Homo sapiens, UniProt P01116+P62937); assay: Disruption of BRAF RBD interaction with Ras (FRET / MOA assay, with Cyclophilin A); assay type: biochemical; conditions: KRAS WT; read-out: KRAS WT FRET data IC50
Outline: (§3)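 Cyclophilin A-dependent ternary complex assay. K-Ras loaded with nucleotide; BRAF RBD as effector. Cpd top 30 μM final, 3 h at 25 °C. Readout: TR-FRET ratio, IC50.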

NRAS G12C = NRAS G12C (Homo sapiens, UniProt P01111+P62937, G12C); assay: as above; assay type: biochemical; conditions: NRAS G12C; read-out: NRAS G12C FRET data IC50
KRAS G12C = KRAS G12C (Homo sapiens, UniProt P01116+P62937, G12C); assay: as above; assay type: biochemical; conditions: read-out: KRAS G12C FRET data, IC50
Outline: as §3

KRAS G13D = KRAS G13D (Homo sapiens, UniProt P01116+P62937, G13D); assay: as above; assay type: biochemical; conditions: KRAS G13D; read-out: KRAS G13D FRET data IC50
Outline: as §3

KRAS G12S = KRAS G12S (Homo sapiens, UniProt P01116+P62937, G12S); assay: as above; assay type: biochemical; conditions: read-out: KRAS G12S FRET data, IC50
Outline: as §3

KRAS G12V = KRAS G12V (Homo sapiens, UniProt P01116+P62937, G12V); assay: as above; assay type: biochemical; conditions: KRAS G12V; read-out: KRAS G12V FRET data IC50
Outline: as §3

KRAS G12D = KRAS G12D (Homo sapiens, UniProt P01116+P62937, G12D); assay: as above; assay type: biochemical; conditions: read-out: KRAS G12D FRET data, IC50
Outline: as §3

KRAS G13C = KRAS G13C (Homo sapiens, UniProt P01116+P62937, G13C); assay: as above; assay type: biochemical; conditions: read-out: KRAS G13C FRET data, IC50
Outline: as §3

Chain of KRAS G13D (P01116 1-169 isoform P01116-2 G13D limits assumed): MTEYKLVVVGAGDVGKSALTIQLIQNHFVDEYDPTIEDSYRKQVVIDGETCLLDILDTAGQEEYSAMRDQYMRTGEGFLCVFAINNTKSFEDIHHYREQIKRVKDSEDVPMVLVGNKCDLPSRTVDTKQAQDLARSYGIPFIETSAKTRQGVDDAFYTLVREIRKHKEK
Chain of KRAS G13D (P62937 whole entry): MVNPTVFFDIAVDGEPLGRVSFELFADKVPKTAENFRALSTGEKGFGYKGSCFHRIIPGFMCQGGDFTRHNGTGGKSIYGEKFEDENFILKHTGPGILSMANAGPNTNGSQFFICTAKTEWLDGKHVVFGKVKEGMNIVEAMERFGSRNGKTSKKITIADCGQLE
Chain of KRAS G12S (P01116 1-169 isoform P01116-2 G12S limits assumed): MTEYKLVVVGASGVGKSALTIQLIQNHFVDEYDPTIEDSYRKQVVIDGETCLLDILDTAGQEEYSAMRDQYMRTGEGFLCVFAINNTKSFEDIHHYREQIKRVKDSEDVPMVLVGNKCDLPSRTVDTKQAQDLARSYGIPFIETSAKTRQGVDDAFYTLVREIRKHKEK
Chain of KRAS G12S (P62937 whole entry): as the sequence (P62937 whole entry) above
Chain of NRAS Q61K (P01111 whole entry Q61K): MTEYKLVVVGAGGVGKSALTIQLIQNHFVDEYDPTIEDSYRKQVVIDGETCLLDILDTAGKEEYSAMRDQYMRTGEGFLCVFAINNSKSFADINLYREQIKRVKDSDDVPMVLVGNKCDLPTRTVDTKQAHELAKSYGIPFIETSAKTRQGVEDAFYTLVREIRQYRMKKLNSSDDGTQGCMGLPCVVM
Chain of NRAS Q61K (P62937 whole entry): as the sequence (P62937 whole entry) above
Chain of KRAS G12C (P01116 1-169 isoform P01116-2 G12C): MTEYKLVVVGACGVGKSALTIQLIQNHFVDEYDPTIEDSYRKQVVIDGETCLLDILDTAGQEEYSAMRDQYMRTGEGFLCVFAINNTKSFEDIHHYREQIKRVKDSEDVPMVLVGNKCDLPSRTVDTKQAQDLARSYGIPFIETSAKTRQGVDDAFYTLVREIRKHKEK
Chain of KRAS G12C (P62937 whole entry): as the sequence (P62937 whole entry) above
Chain of KRAS Q61H (P01116 1-169 isoform P01116-2 Q61H limits assumed): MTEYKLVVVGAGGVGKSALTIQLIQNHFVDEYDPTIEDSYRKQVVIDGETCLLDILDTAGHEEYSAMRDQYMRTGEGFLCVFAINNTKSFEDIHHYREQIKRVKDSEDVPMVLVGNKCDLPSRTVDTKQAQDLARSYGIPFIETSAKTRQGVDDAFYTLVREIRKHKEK
Chain of KRAS Q61H (P62937 whole entry): as the sequence (P62937 whole entry) above
Chain of KRAS WT (P01116 1-169 isoform P01116-2 limits assumed): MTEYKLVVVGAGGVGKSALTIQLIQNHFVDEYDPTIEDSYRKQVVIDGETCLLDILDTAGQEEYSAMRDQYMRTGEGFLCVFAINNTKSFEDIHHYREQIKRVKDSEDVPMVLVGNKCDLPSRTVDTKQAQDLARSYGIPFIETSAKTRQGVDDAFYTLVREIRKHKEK
Chain of KRAS WT (P62937 whole entry): as the sequence (P62937 whole entry) above
Chain of KRAS G12D (P01116 1-169 isoform P01116-2 G12D limits assumed): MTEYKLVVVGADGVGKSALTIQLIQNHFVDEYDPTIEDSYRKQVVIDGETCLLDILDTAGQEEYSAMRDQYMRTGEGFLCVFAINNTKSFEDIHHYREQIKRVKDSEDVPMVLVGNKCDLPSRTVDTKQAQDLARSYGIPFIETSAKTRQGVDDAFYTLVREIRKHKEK
Chain of KRAS G12D (P62937 whole entry): as the sequence (P62937 whole entry) above
Chain of NRAS G12C (P01111 whole entry G12C): as the sequence (P01111 whole entry Q61K) above, with G12C, K61Q counted along it
Chain of NRAS G12C (P62937 whole entry): as the sequence (P62937 whole entry) above
Chain of NRAS Q61R (P01111 whole entry Q61R): as the sequence (P01111 whole entry Q61K) above, with K61R counted along it
Chain of NRAS Q61R (P62937 whole entry): as the sequence (P62937 whole entry) above
Chain of KRAS G12V (P01116 1-169 isoform P01116-2 G12V limits assumed): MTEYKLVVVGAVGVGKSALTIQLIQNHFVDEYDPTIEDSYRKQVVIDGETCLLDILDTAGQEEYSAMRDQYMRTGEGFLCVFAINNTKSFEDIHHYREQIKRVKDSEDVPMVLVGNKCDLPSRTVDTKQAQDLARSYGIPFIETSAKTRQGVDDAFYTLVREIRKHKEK
Chain of KRAS G12V (P62937 whole entry): as the sequence (P62937 whole entry) above
Chain of NRAS WT (P01111 whole entry): as the sequence (P01111 whole entry Q61K) above, with K61Q counted along it
Chain of NRAS WT (P62937 whole entry): as the sequence (P62937 whole entry) above
Chain of KRAS G13C (P01116 1-169 isoform P01116-2 G13C): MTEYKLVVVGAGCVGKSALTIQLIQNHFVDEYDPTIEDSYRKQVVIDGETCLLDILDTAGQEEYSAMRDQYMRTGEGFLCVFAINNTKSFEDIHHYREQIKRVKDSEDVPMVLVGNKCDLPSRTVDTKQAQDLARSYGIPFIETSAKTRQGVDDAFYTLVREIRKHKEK
Chain of KRAS G13C (P62937 whole entry): as the sequence (P62937 whole entry) above

SMILES | IC50 (NRAS WT) [nM] | IC50 (NRAS Q61K) [nM] | IC50 (KRAS Q61H) [nM] | IC50 (NRAS Q61R) [nM] | IC50 (NCI-H358 (K-Ras G12C)) [nM] | IC50 (KRAS WT) [nM] | IC50 (NRAS G12C) [nM] | IC50 (KRAS G12C) [nM] | IC50 (KRAS G13D) [nM] | IC50 (KRAS G12S) [nM] | IC50 (KRAS G12V) [nM] | IC50 (KRAS G12D) [nM] | IC50 (KRAS G13C) [nM] | IC50 (Capan-1 (K-Ras G12V)) [nM]
CCn1c(-c2cccnc2[C@H](C)OC)c2c3cc(ccc31)-c1csc(n1)C[C@H](NC(=O)[C@H](C(C)C)N(C)C(=O)N1CC3(CC(N(C)C)C3)C1)C(=O)N1CCC[C@H](N1)C(=O)OCC(C)(C)C2 (atropisomer, axis not shown) [Example A280] | 100 to 1000 | 10 to 100 | 10 to 100 | 100 to 1000 | 10 to 100 | 100 to 1000 | 10 to 100 | 10 to 100 | 100 to 1000 | 100 to 1000 | 100 to 1000 | 100 to 1000 | 100 to 1000 | 10 to 100
CCn1c(-c2cccnc2[C@H](C)OC)c2c3cc(ccc31)-c1csc(n1)C[C@H](NC(=O)[C@H](C(C)C)N(C)C(=O)N1CC(N(C)C3CC3)C1)C(=O)N1CCC[C@H](N1)C(=O)OCC(C)(C)C2 (atropisomer, axis not shown) [Example A285] | 100 to 1000 | 10 to 100 | 10 to 100 | 100 to 1000 | 10 to 100 | 100 to 1000 | 10 to 100 | 10 to 100 | 100 to 1000 | 100 to 1000 | 100 to 1000 | 100 to 1000 | 100 to 1000 | 10 to 100
CCn1c(-c2cccnc2[C@H](C)OC)c2c3cc(ccc31)-c1csc(n1)C[C@H](NC(=O)[C@H](C(C)C)N(C)C(=O)N1CC(OC(F)F)C1)C(=O)N1CCC[C@H](N1)C(=O)OCC(C)(C)C2 (atropisomer, axis not shown) [Example A302] | 100 to 1000 | 10 to 100 | 10 to 100 | 100 to 1000 | < 10 | 100 to 1000 | 10 to 100 | 10 to 100 | 100 to 1000 | 100 to 1000 | 100 to 1000 | 100 to 1000 | 100 to 1000 | 10 to 100
CCn1c(-c2cccnc2[C@H](C)OC)c2c3cc(ccc31)-c1csc(n1)C[C@H](NC(=O)[C@H]1CCCO1)C(=O)N1CCC[C@H](N1)C(=O)OCC(C)(C)C2 (atropisomer, axis not shown) [Example A315] | 100 to 1000 | 100 to 1000 | 100 to 1000 | 1000 to 10000 | 100 to 1000 | 100 to 1000 | 100 to 1000 | 100 to 1000 | 100 to 1000 | 100 to 1000 | 100 to 1000 | 1000 to 10000 | 100 to 1000 | 100 to 1000
CCn1c(-c2cccnc2[C@H](C)OC)c2c3cc(ccc31)-c1csc(n1)C[C@H](NC(=O)[C@H](C(C)C)N(C)C(=O)N1CCCOCC1)C(=O)N1CCC[C@H](N1)C(=O)OCC(C)(C)C2 (atropisomer, axis not shown) [Example A335] | 10 to 100 | 10 to 100 | 10 to 100 | 10 to 100 | < 10 | 10 to 100 | 10 to 100 | 10 to 100 | 100 to 1000 | 10 to 100 | 100 to 1000 | 100 to 1000 | 100 to 1000 | 10 to 100
CCn1c(-c2cccnc2[C@H](C)OC)c2c3cc(ccc31)-c1csc(n1)C[C@H](NC(=O)[C@H](C(C)C)N(C)C(=O)N1CC(NC)C1)C(=O)N1CCC[C@H](N1)C(=O)OCC(C)(C)C2 (atropisomer, axis not shown) [Example A337] | 100 to 1000 | 10 to 100 | 100 to 1000 | 100 to 1000 | 10 to 100 | 100 to 1000 | 100 to 1000 | 100 to 1000 | 100 to 1000 | 100 to 1000 | 100 to 1000 | 1000 to 10000 | 100 to 1000 | 100 to 1000
CCn1c(-c2cccnc2[C@H](C)OC)c2c3cc(ccc31)-c1csc(n1)C[C@H](NC(=O)[C@H](C(C)C)N(C)C(=O)N(C)C1CCC1)C(=O)N1CCC[C@H](N1)C(=O)OCC(C)(C)C2 (atropisomer, axis not shown) [Example A349] | 10 to 100 | 10 to 100 | 10 to 100 | 10 to 100 | 10 to 100 | 10 to 100 | 10 to 100 | 10 to 100 | 10 to 100 | 10 to 100 | 10 to 100 | 100 to 1000 | 10 to 100 | 100 to 1000

More lines, main results first:

IC50 (NRAS WT) [nM] | IC50 (NRAS Q61K) [nM] | IC50 (KRAS Q61H) [nM] | IC50 (NRAS Q61R) [nM] | IC50 (NCI-H358 (K-Ras G12C)) [nM] | IC50 (KRAS WT) [nM] | IC50 (NRAS G12C) [nM] | IC50 (KRAS G12C) [nM] | IC50 (KRAS G13D) [nM] | IC50 (KRAS G12S) [nM] | IC50 (KRAS G12V) [nM] | IC50 (KRAS G12D) [nM] | IC50 (KRAS G13C) [nM] | SMILES | IC50 (Capan-1 (K-Ras G12V)) [nM]
10 to 100 | 10 to 100 | 10 to 100 | 10 to 100 | 10 to 100 | 100 to 1000 | 10 to 100 | 10 to 100 | 100 to 1000 | 100 to 1000 | 10 to 100 | 100 to 1000 | 100 to 1000 | CCn1c(-c2cccnc2[C@H](C)OC)c2c3cc(ccc31)-c1csc(n1)C[C@H](NC(=O)[C@H](C(C)C)N(C)C(=O)N1CC([C@H](C)OC)C1)C(=O)N1CCC[C@H](N1)C(=O)OCC(C)(C)C2 (atropisomer, axis not shown) [Example A279] | 10 to 100
10 to 100 | 10 to 100 | 10 to 100 | 100 to 1000 | 10 to 100 | 10 to 100 | 10 to 100 | 10 to 100 | 100 to 1000 | 100 to 1000 | 100 to 1000 | 100 to 1000 | 100 to 1000 | CCn1c(-c2cccnc2[C@H](C)OC)c2c3cc(ccc31)-c1csc(n1)C[C@H](NC(=O)[C@H](C(C)C)N(C)C(=O)N1CCN(C(=O)CN(C)C)CC1)C(=O)N1CCC[C@H](N1)C(=O)OCC(C)(C)C2 (atropisomer, axis not shown) [Example A290] | 10 to 100
10 to 100 | 10 to 100 | 10 to 100 | 10 to 100 | < 10 | 10 to 100 | 10 to 100 | 10 to 100 | 100 to 1000 | 100 to 1000 | 100 to 1000 | 100 to 1000 | 100 to 1000 | CCn1c(-c2cccnc2[C@H](C)OC)c2c3cc(ccc31)-c1csc(n1)C[C@H](NC(=O)[C@H](C(C)C)N(C)C(=O)N1CCN(C(=O)CO)CC1)C(=O)N1CCC[C@H](N1)C(=O)OCC(C)(C)C2 (atropisomer, axis not shown) [Example A306] | 10 to 100
10 to 100 | 10 to 100 | 10 to 100 | 10 to 100 | < 10 | 100 to 1000 | 10 to 100 | 10 to 100 | 100 to 1000 | 100 to 1000 | 100 to 1000 | 100 to 1000 | 100 to 1000 | CCn1c(-c2cccnc2[C@H](C)OC)c2c3cc(ccc31)-c1csc(n1)C[C@H](NC(=O)[C@H](C(C)C)N(C)C(=O)N1CCO[C@@H](C)C1)C(=O)N1CCC[C@H](N1)C(=O)OCC(C)(C)C2 (atropisomer, axis not shown) [Example A309] | 10 to 100

— patent publication US20230233569A1 (Revolution Medicines, Inc., priority 2020, published 2023)
